{"source": "patent US20240368194A1", "about": "“IRAK4 DEGRADATION AGENT, AND PREPARATION METHOD THEREFOR AND USE THEREOF” (SHANGHAI LEADINGTAC PHARMACEUTICAL CO. LTD., priority 2021, published 2024)"}
{"molecular_target": "IRAK4 protein in THP-1 cells (Homo sapiens (Human), UniProt Q9NWZ3)", "sequence (Q9NWZ3 whole entry)": "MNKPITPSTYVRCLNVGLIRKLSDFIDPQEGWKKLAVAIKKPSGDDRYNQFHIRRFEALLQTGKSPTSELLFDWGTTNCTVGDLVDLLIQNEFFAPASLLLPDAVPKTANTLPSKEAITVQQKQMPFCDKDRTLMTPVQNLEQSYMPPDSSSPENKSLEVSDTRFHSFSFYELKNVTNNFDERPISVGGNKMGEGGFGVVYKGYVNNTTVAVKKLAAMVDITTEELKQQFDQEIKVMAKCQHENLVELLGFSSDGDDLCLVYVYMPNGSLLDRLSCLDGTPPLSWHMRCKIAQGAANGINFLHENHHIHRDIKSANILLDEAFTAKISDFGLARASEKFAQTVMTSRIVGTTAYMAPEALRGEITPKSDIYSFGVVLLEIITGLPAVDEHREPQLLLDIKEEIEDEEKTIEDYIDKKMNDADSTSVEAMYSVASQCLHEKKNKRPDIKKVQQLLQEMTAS", "experiment": "Degradation of IRAK4 in THP-1 cells, human IRAK4 AlphaLISA assay", "format": "cell-based", "details": "24 h incubation", "protocol": "THP-1 cells (Stem Cell Bank, Chinese Academy of Sciences) were inoculated onto a 24-well cell culture plate at 0.95 mL/well, with a cell density of 5×10^5 cells/well. The cell plate was incubated overnight in a 37° C., 5% carbon dioxide incubator, and 50 μL of a solution of a compound in dimethyl sulfoxide was added, such that the final concentration of the compound fell within the range of 0.03-3000 nM. After another 24 h of incubation, cells were collected into 1.5 mL centrifuge tubes and centrifuged at 1000 rpm at 4° C. for 5 min. The cell pellets were washed twice with 1×DPBS. The resuspended cells were lysed with 200 μL of lysis buffer (Western and IP cell lysis buffer (Beyotime), supplemented with 1 mM phenylmethylsulfonyl fluoride and protease inhibitor cocktail (Beyotime)), left to stand on ice for 30 mini, and then centrifuged at 14,000 g at 4° C. for 10 min. The supernatant samples were assayed by Western Blot for IRAK4 protein levels.\nThe above cell lysates were also tested for IRAK4 degradation using a human IRAK4 AlphaLISA assay kit (PerkinElmer, AL3117C). The method is specifically as follows: 2-μL test samples of cell lysate supernatant were transferred to a white 384-well plate (PerkinElmer, 6007299), and 4 μL of 5× anti-IRAK4 receptor beads (PerkinElmer, final concentration of 10 μg/mL) was then added. The plate was incubated at 23° C. for 30 min. Then 4 μL of 5× biotin-labeled anti-IRAK4 antibody (PerkinElmer, final concentration of 1 nM) was added, and the plate was incubated at 23° C. for 60 min. Finally, 10 μL of 2′ streptavidin-labeled donor beads (final concentration of 40 μg/mL) was added to each well, and the plate was incubated in the dark at 23° C. for 30 min. After the incubation was complete, AlphaLISA signal values were measured on a microplate reader EnVision (PerkinElmer, 2105) in the AlphaScreen standard mode, and IRAK4 concentrations were calculated from these signal values. Then a non-linear curve fitting of logarithmic concentration-inhibition rate was performed using GraphPad Prism 7, and the DC50 and Dmax values of the compound were obtained.", "units": {"DC50": "nM", "Dmax": "%"}}
{"smiles": "Cc1nn([C@H]2CC[C@H](CN3CCC4(CC3)CCN(C(=O)c3ccc(Cl)c(N5CCC(=O)NC5=O)c3)CC4)CC2)cc1NC(=O)c1cnn2ccc(N3C[C@H]4C[C@@H]3CO4)nc12", "note": "[Example 7, 5-((1R,4R)-2-oxa-5-azabicyclo[2.2.1]heptan-5-yl)-N-(1-((1R,4R)-4-((9-(4-chloro-3-(2,4-dioxotetrahydropyrimidin-1(2H)-yl)benzoyl)-3,9-diazaspiro[5.5]undecan-3-yl)methyl)cyclohexyl)-3-methyl-1H-pyrazol-4-yl)pyrazolo[1,5-a]pyrimidine-3-carboxamide]", "DC50": 148, "Dmax": 76.4}
{"smiles": "COc1cc2nn([C@H]3CC[C@](O)(COCC4CCN(C(=O)c5ccc(Cl)c(N6CCC(=O)NC6=O)c5)CC4)CC3)cc2cc1NC(=O)c1cccc(C(F)(F)F)n1", "note": "[Example 8, N-(2-((1S,4S)-4-(((1-(4-chloro-3-(2,4-dioxotetrahydropyrimidin-1(2H)-yl)benzoyl)piperidin-4-yl)methoxy)methyl)-4-hydroxycyclohexyl)-6-methoxy-2H-indol-5-yl)-6-(trifluoromethyl)pyridinecarboxamide]", "DC50": 8.8, "Dmax": 86.8}
{"smiles": "COc1cc2nn([C@H]3CC[C@](O)(COCCC4CCN(C(=O)c5ccc(Cl)c(N6CCC(=O)NC6=O)c5)CC4)CC3)cc2cc1NC(=O)c1cccc(C(F)(F)F)n1", "note": "[Example 10]", "DC50": 2.8, "Dmax": 99.3}
{"smiles": "CN(CCC1CCN(C(=O)c2ccc(Cl)c(N3CCC(=O)NC3=O)c2)CC1)C[C@H]1CC[C@H](n2cc(NC(=O)c3cnn4ccc(N5C[C@H]6C[C@@H]5CO6)nc34)c(C(F)F)n2)CC1", "note": "[Example 11, 5-((1R,4R)-2-oxa-5-azabicyclo[2.2.1]heptan-5-yl)-N-(1-((1R,4R)-4-(((2-(1-(4-chloro-3-(2,4-dioxotetrahydropyrimidin-1(2H)-yl)benzoyl)piperidin-4-yl)ethyl)(methyl)amino)methyl)cyclohexyl)-3-(difluoromethyl)-1H-pyrazol-4-yl)pyrazolo[1,5-a]pyrinidine-3-carboxamide]", "DC50": 12.7, "Dmax": 90.7}
{"smiles": "COc1cc2nn([C@H]3CC[C@](O)(CN(C)CC4CCC5(CC4)CCN(C(=O)c4ccc(Cl)c(N6CCC(=O)NC6=O)c4)CC5)CC3)cc2cc1NC(=O)c1cccc(C(F)(F)F)n1", "note": "[Example 17]", "DC50": 10.4, "Dmax": 99.4}
{"smiles": "COc1cc2nn([C@H]3CC[C@@](COCCC4CCN(C(=O)c5ccc(Cl)c(N6CCC(=O)NC6=O)c5)CC4)(OC)CC3)cc2cc1NC(=O)c1cccc(C(F)(F)F)n1", "note": "[Example 22, N-(2-((1S,4S)-4-((2-(1-(4-chloro-3-(2,4-dioxotetrahydropyrimidin-1(2H)-yl)benzoyl)piperidin-4-yl)ethoxy)methyl)-4-methoxycyclohexyl)-6-methoxy-2H-indazol-5-yl)-6-(trifluoromethyl)pyridinecarboxamide]", "DC50": 3.42, "Dmax": 96.5}
{"smiles": "O=C1CCN(c2cc(C(=O)N3CCC4(CCN(C[C@H]5CC[C@H](n6cc(NC(=O)c7cnn8ccc(N9CCOCC9)nc78)c(C(F)F)n6)CC5)CC4)CC3)ccc2Cl)C(=O)N1", "note": "[Example 29, N-(1-((1R,4R)-4-((9-(4-chloro-3-(2,4-dioxotetrahydropyrimidin-1(2H)-yl)benzoyl)-3,9-diazaspiro[5.5]undecan-3-yl)methyl)cyclohexyl)-3-(difluoromethyl)-1H-pyrazol-4-yl)-5-morpholinopyrazolo[1,5-a]pyrimidine-3-carboxamide]", "DC50": 2.75, "Dmax": 98.5}
{"smiles": "CN(CCC1CCN(C(=O)c2ccc(Cl)c(N3CCC(=O)NC3=O)c2)CC1)C[C@H]1CC[C@H](n2cc(NC(=O)c3cnn4ccc(N5CCOCC5)nc34)c(C(F)F)n2)CC1", "note": "[Example 30, N-(1-((1R,4R)-4-(((2-(1-(4-chloro-3-(2,4-dioxotetrahydropyrimidin-1(2H)-yl)benzoyl)piperidin-4-yl)ethyl)(methyl)amino)methyl)cyclohexyl)-3-(difluoromethyl)-1H-pyrazol-4-yl)-5-morpholinopyrazolo[1,5-a]pyrimidine-3-carboxamide]", "DC50": 5.23, "Dmax": 90.1}
{"smiles": "CN(CCC1CCN(C(=O)c2ccc(Cl)c(N3CCC(=O)NC3=O)c2)CC1)C[C@H]1CC[C@H](n2cc(NC(=O)c3cnn4ccc(N5CC6CCC(C5)O6)nc34)c(C(F)F)n2)CC1", "note": "[Example 31, 5-(8-oxa-3-azabicyclo[3.2.1]octan-3-yl)-N-(1-((1R,4R)-4-(((2-(1-(4-chloro-3-(2,4-dioxotetrahydropyrimidin-1(2H)-yl)benzoyl)piperidin-4-yl)ethyl)(methyl)amino)methyl)cyclohexyl)-3-(difluoromethyl)-1H-pyrazol-4-yl)pyrazolo[1,5-a]pyrimidine-3-carboxamide]", "DC50": 6.1, "Dmax": 91.1}
{"smiles": "O=C1CCN(c2cc(C(=O)N3CCC4(CCN(C[C@H]5CC[C@H](n6cc(NC(=O)c7cnn8ccc(N9CC%10CCC(C9)O%10)nc78)c(C(F)F)n6)CC5)CC4)CC3)ccc2Cl)C(=O)N1", "note": "[Example 32, 5-(8-oxa-3-azabicyclo[3.2.1]octan-3-yl)-N-(1-((1R,4R)-4-((9-(4-chloro-3-(2,4-dioxotetrahydropyrimidin-1(2H)-yl)benzoyl)-3,9-diazaspiro[5.5]undecan-3-yl)methyl)cyclohexyl)-3-(difluoromethyl)-1H-pyrazol-4-yl)pyrazolo[1,5-a]pyrimidine-3-carboxamide]", "DC50": 3.46, "Dmax": 90.5}
{"smiles": "COc1ccc(C(=O)N2CCC(CCN(C)C[C@H]3CC[C@H](n4cc(NC(=O)c5cnn6ccc(N7CCC[C@H](O)C7)nc56)c(C(F)F)n4)CC3)CC2)cc1N1CCC(=O)NC1=O", "note": "[Example 35, N-(3-(difluoromethyl)-1-((1R,4S)-4-(((2-(1-(3-(2,4-dioxotetrahydropyrimidin-1(2H)-yl)-4-methoxybenzoyl)piperidin-4-yl)ethyl)(methyl)amino)methyl)cyclohexyl)-1H-pyrazol-4-yl)-5-((S)-3-hydroxypiperidin-1-yl)pyrazolo[1,5-a]pyrimidine-3-carboxamide]", "DC50": 0.78, "Dmax": 100}
{"smiles": "COc1ccc(C(=O)N2CCC(CCN(C)C[C@H]3CC[C@H](n4cc(NC(=O)c5cnn6ccc(N7CCC[C@H](N)C7)nc56)c(C(F)F)n4)CC3)CC2)cc1N1CCC(=O)NC1=O", "note": "[Example 36, 5-((S)-3-aminopiperidin-1-yl)-N-(3-(difluoromethyl)-1-((1R,4S)-4-(((2-(1-(3-(2,4-dioxotetrahydropyrimidin-1(2H)-yl)-4-methoxybenzoyl)piperidin-4-yl)ethyl)(methyl)amino)methyl)cyclohexyl)-1H-pyrazol-4-yl)pyrazolo[1,5-a]pyrimidine-3-carboxamide]", "DC50": 3.45, "Dmax": 96}
{"smiles": "COc1ccc(C(=O)N2CCC(CCN(C)C[C@H]3CC[C@H](n4cc(NC(=O)c5cnn6ccc(N7CC8(COC8)C7)nc56)c(C(F)F)n4)CC3)CC2)cc1N1CCC(=O)NC1=O", "note": "[Example 39, N-(3-(difluoromethyl)-1-((1R,4R)-4-(((2-(1-(3-(2,4-dioxotetrahydropyrimidin-1(2H)-yl)-4-methoxybenzoyl)piperidin-4-yl)ethyl)(methyl)amino)methyl)cyclohexyl)-1H-pyrazol-4-yl)-5-(2-oxa-6-azaspiro[3.3]heptan-6-yl)pyrazolo[1,5-a]pyrimidine-3-carboxamide]", "DC50": 10.9, "Dmax": 93.9}
{"smiles": "Cc1ccc(C(=O)N2CCC3(CCN(C[C@H]4CC[C@H](n5cc(NC(=O)c6cnn7ccc(N8CCC[C@H](O)C8)nc67)c(C(F)F)n5)CC4)CC3)CC2)cc1N1CCC(=O)NC1=O", "note": "[Example 45, N-(3-(difluoromethyl)-1-((1R,4S)-4-((9-(3-(2,4-dioxotetrahydropyrimidin-1(2H)-yl)-4-methylbenzoyl)-3,9-diazaspiro[5.5]undecan-3-yl)methyl)cyclohexyl)-1H-pyrazol-4-yl)-5-((S)-3-hydroxypiperidin-1-yl)pyrazolo[1,5-a]pyrimidine-3-carboxamide]", "DC50": 0.82, "Dmax": 96.2}
{"smiles": "CN(CCC1CCN(C(=O)c2ccc(Cl)c(N3CCC(=O)NC3=O)c2)CC1)C[C@H]1CC[C@H](n2cc(NC(=O)c3cnn4ccc(N5CCC[C@H](N)C5)nc34)c(C(F)F)n2)CC1", "note": "[Example 47, 5-((S)-3-aminopiperidin-1-yl)-N-(1-((1R,4S)-4-(((2-(1-(4-chloro-3-(2,4-dioxotetrahydropyrimidin-1(2H)-yl)benzoyl)piperidin-4-yl)ethyl)(methyl)amino)methyl)cyclohexyl)-3-(difluoromethyl)-1H-pyrazol-4-yl)pyrazolo[1,5-a]pyrimidine-3-carboxamide]", "DC50": 4.84, "Dmax": 99}
